Data published in ChEMBL document CHEMBL2429761, “Discovery of ML314, a Brain Penetrant Non-Peptidic β-Arrestin Biased Agonist of the Neurotensin NTR1 Receptor” (ACS Med Chem Lett, 2013).
Values after ≈ are worked out from the molar mass of the structure shown.

Columns and labels:
[1] = molecular target: Neurotensin receptor type 2 (Homo sapiens, UniProt O95665); assay: Agonist activity at NTR2 (unknown origin) expressed in human U2OS cells coexpressing beta-arrestin by GFP reporter gene assay; type: cell-based
Sequence of Neurotensin receptor type 2 (O95665 whole entry): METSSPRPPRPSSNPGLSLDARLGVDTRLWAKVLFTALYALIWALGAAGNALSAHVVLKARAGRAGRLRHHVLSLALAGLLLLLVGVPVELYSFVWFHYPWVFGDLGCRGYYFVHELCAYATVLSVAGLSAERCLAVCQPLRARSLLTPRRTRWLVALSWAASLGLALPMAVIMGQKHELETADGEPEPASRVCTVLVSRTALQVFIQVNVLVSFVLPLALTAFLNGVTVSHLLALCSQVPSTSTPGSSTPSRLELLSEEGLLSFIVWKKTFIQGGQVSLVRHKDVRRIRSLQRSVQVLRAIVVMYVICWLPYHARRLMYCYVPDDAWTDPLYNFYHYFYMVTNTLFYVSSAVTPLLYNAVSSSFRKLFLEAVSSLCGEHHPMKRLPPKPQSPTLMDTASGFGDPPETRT

Mu-type opioid receptor = Mu-type opioid receptor (Homo sapiens, UniProt P35372); assay: Binding affinity to mu opioid receptor (unknown origin) at 10 uM relative to control
Sequence of Mu-type opioid receptor (P35372 whole entry): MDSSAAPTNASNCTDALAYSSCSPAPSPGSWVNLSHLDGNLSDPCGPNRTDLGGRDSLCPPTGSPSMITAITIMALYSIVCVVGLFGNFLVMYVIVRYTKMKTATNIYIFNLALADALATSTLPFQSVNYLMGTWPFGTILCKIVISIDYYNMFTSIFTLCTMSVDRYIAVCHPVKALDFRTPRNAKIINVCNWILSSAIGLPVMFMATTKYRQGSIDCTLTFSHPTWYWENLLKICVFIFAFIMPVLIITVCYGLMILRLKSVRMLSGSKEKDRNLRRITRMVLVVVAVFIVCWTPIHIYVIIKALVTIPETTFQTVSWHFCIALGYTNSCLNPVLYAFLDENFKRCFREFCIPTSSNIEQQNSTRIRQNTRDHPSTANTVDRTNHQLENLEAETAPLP

Translocator protein = Translocator protein (Homo sapiens, UniProt P30536); assay: Binding affinity to PBR receptor (unknown origin)
Sequence of Translocator protein (P30536 whole entry): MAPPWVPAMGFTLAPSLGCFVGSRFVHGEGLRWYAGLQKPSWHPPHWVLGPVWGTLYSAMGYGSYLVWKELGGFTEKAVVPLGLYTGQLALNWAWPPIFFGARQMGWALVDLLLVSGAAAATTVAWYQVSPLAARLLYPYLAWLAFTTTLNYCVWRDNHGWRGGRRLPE

Plasma = assay: Plasma protein binding in human at 1 uM after 4 hrs by LC-MS/MS analysis; type: ADME, cell-free
[2] = molecular target: 5-hydroxytryptamine receptor 7 (Homo sapiens, UniProt P34969); assay: Binding affinity to 5-HT7 receptor (unknown origin)
Sequence of 5-hydroxytryptamine receptor 7 (P34969 whole entry): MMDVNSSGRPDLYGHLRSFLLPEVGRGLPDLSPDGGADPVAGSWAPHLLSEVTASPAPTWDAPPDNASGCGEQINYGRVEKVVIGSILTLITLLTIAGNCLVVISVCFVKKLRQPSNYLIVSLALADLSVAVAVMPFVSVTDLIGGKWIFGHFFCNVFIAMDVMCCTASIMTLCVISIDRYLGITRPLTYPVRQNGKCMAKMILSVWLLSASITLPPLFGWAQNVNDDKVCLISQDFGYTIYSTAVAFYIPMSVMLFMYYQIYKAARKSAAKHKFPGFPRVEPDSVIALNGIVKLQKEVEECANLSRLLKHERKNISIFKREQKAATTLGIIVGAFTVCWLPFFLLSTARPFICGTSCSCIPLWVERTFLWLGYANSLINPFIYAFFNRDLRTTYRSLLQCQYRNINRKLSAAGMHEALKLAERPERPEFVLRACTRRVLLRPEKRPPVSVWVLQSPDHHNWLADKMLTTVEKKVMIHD

[3] = molecular target: T1, Neurotensin receptor type 1 (Homo sapiens, UniProt P30989); details: U2OS
T1 sequence (P30989 whole entry): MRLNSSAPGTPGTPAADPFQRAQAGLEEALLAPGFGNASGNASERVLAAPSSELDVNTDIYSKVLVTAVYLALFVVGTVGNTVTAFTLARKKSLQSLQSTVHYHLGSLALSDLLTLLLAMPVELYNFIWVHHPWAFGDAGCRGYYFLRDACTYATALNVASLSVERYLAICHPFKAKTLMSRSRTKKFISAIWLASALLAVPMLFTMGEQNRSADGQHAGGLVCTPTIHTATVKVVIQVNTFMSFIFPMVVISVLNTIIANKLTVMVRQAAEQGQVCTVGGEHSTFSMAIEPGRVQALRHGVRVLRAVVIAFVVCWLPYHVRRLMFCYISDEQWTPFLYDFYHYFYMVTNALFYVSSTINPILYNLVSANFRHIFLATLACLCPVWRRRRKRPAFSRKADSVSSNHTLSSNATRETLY
Description: Agonist activity at NTR1 (unknown origin) expressed in human U2OS cells coexpressing beta-arrestin by GFP reporter gene assay

[4] = Kinetic solubility of the compound in pION buffer at 250 uM after 18 hrs at pH 5; type: physicochemical; details: read-out: Kinetic_solubility
Histamine H1 receptor = Histamine H1 receptor (Homo sapiens, UniProt P35367); assay: Binding affinity to histamine H1 receptor (unknown origin)
Sequence of Histamine H1 receptor (P35367 whole entry): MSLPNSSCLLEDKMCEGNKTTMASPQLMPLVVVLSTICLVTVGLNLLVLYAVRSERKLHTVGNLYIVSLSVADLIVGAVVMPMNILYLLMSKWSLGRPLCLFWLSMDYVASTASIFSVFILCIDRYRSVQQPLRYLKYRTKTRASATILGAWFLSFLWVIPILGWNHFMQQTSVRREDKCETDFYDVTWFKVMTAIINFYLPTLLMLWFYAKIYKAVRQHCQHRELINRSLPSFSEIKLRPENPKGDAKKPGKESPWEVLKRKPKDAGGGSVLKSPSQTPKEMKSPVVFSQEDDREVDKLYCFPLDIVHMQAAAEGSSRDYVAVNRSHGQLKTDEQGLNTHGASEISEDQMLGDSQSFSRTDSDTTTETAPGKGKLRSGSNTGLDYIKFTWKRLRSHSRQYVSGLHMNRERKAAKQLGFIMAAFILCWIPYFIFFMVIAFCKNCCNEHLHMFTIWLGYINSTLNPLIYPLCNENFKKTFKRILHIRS

[5] = molecular target: T1, Neurotensin receptor type 1; assay: Agonist activity at NTR1 (unknown origin) expressed in CHOK1 cells by beta-arrestin assay relative to neurotensin (8 to 13); type: cell-based; details: CHO-K1
[6] = Kinetic solubility of the compound in pION buffer at 250 uM after 18 hrs at pH 6.2; type: physicochemical; details: read-out: Kinetic_solubility
[7] = molecular target: T2, Alpha-1A adrenergic receptor (Homo sapiens) (UniProt P35348); assay: Binding affinity to adrenergic alpha1A receptor (unknown origin) at 10 uM relative to control
T2 sequence (whole entry): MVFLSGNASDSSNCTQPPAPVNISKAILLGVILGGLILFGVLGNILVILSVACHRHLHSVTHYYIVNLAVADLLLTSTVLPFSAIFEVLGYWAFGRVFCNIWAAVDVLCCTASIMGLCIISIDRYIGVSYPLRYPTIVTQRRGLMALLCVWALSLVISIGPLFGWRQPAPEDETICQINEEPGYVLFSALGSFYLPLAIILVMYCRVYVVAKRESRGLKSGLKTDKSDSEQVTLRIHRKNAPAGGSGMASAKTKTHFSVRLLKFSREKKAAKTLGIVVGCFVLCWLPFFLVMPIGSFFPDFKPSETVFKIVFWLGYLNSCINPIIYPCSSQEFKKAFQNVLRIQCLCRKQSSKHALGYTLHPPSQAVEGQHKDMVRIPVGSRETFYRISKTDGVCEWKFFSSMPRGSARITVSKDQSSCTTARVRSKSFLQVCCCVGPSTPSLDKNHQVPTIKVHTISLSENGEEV

[8] = molecular target: T3, 5-hydroxytryptamine receptor 3A (Homo sapiens, UniProt P46098); assay: Binding affinity to 5-HT3 receptor (unknown origin)
T3 sequence (P46098 whole entry): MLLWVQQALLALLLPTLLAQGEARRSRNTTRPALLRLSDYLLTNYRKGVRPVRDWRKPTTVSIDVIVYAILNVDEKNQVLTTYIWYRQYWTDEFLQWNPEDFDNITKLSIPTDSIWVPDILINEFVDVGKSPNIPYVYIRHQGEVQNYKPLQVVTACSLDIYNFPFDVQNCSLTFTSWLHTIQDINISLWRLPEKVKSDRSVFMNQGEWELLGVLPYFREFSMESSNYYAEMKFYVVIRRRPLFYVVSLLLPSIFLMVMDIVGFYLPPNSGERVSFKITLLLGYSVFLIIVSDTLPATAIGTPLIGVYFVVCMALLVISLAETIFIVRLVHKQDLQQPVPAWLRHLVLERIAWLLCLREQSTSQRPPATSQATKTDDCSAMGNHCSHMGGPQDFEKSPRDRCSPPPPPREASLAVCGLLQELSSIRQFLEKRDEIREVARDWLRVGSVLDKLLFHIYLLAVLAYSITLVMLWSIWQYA

Question: What does the source list for `COc1cc2nc(C3CC3)nc(N3CCN(c4ccccc4OC)CC3)c2cc1OC`?
Answer: EC50 [1]: > 80000 nM; Activity (Mu-type opioid receptor): 86%; Ki (Translocator protein): 2540 nM; PPB (Plasma): 99.5%; Ki [2]: 930 nM; EC100 [3]: 10 µM; solubility kinetic at 18 h, 250 µM [4]: > 297 µM; Ki (Histamine H1 receptor): 1420 nM; Emax [5]: 86.6%; solubility kinetic at 18 h, 250 µM [6]: 21.4 µM (≈ 9 µg/mL); Activity [7]: 63%; Ki [8]: 1000 nM
